Values quoted from earlier work as cited in patent publication US20070082912A1, “Pyrrole compounds for the treatment of prostaglandine mediated diseases” (priority 2002, published 2007).

Legend:
[1] = system: rat model of chronic constriction injury; conditions: Anesthesia and Analgesia 2001, 93, 1012-7
[2] = system: rodent model of post-operative pain; conditions: Anesthesia and Analgesia 2001, 92, 233-238

Cc1cc(Cl)ccc1S(=O)(=O)NC[C@H]1C2CCC(CC2)[C@@H]1/C=C\CCCC(=O)O [ONO-871 1]
hyperalgesia and allodynia [1]: reduces hyperalgesia and allodynia
mechanical hyperalgesia [2]: inhibits mechanical hyperalgesia
